Assay: xn = mol fraction of the nth substance listed
Details: 101 kPa, Liquid; for speed of sound: Sing-around technique in a fixed-path interferometer; for mass density: Vibrating tube method

CCCCCCOCCOCCO [2-(2-hexyloxyethoxy)ethanol] + CCCCNCCCC
Details | mass density, 288.15 K [kg/m3] | mass density, 293.15 K [kg/m3] | speed of sound, 288.15 K [m/s] | speed of sound, 293.15 K [m/s] | speed of sound, 298.15 K [m/s]
x1 = 0.0974 | 787.886 | 783.751 | 1301.4 | 1282.3 | 1262.9
x1 = 0.1441 | 798.114 | 793.988 | 1308.1 | 1289.2 | 1270.5
x1 = 0.1908 | 808.103 | 804 | 1314.8 | 1296 | 1277.8
x1 = 0.253 | 820.984 | 816.934 | 1323.5 | 1304.8 | 1287
x1 = 0.2986 | 830.092 | 826.059 | 1329.8 | 1311.2 | 1293.6
x1 = 0.3606 | 842 | 837.97 | 1338 | 1319.7 | 1302.1
x1 = 0.4018 | 849.578 | 845.585 | 1343.4 | 1325.2 | 1307.6
x1 = 0.4584 | 859.635 | 855.602 | 1350.4 | 1332.6 | 1315
x1 = 0.5091 | 868.247 | 864.218 | 1356.7 | 1339 | 1321.3
x1 = 0.5435 | 873.936 | 869.891 | 1360.8 | 1343.2 | 1325.7
x1 = 0.587 | 880.891 | 876.847 | 1365.8 | 1348.4 | 1330.9
x1 = 0.6097 | 884.459 | 880.409 | 1368.4 | 1351 | 1333.6
x1 = 0.6572 | 891.716 | 887.648 | 1373.6 | 1356.4 | 1339
x1 = 0.7023 | 898.412 | 894.343 | 1378.3 | 1361.3 | 1344.1
x1 = 0.7451 | 904.586 | 900.53 | 1382.7 | 1365.7 | 1348.6
x1 = 0.8144 | 914.195 | 910.151 | 1389.4 | 1372.4 | 1355.5
x1 = 0.8675 | 921.188 | 917.168 | 1394.2 | 1377.2 | 1360.3
x1 = 0.9083 | 926.329 | 922.317 | 1397.7 | 1380.6 | 1363.7
x1 = 0.9414 | 930.322 | 926.329 | 1400.4 | 1383.2 | 1366.2

Source: the NIST ThermoML archive (doi:10.1021/je800026p)
